The values below come from US10624874B2, “Lasofoxifene modulation of membrane-initiated estrogen signals and methods for tumor treatment” (Zhejiang Jiachi Development Pharmaceuticals LTD, priority 2017, dated 2020).

One experiment has as its system HBE cells. Put plainly: Proliferation of HBE cells. Type of experiment: cell-based. As to conditions: 2 μM, cells not expressing ER-α36, FIG. 5-B. The protocol: (§1) A. Cell lines HBE, H1299 and H460 were cultured. Expression of EGFR, ER-α66, ER-α46, ER-α36, ER-β, GPER-1 were tested using Western blot. B. HBE cells and H460 cells were treated with 2 μM tamoxifen or 2 μM lasofoxifene. Proliferation of HBE cells and H460 cells were shown after each treatment. C. H460 cells were treated with vehicle only, or gefitinib, or lasofoxifene, or a combination of gefitinib and lasofoxifene. Proliferation of […] were shown after each treatment. D. H1299 were treated with vehicle only, or gefitinib, or lasofoxifene, or a combination of gefitinib and lasofoxifene. Proliferation of lung cancer cells was shown after each treatment.
(§2) Cells were inoculated into 24 well plates with culture medium and treated using the designated concentration of drugs. Cell number was counted using a cell counter (Count Star). The cell bio-behaviors including total cell number and movement were measured using a real-time cell monitoring system. Briefly, the image was captured at 5 min intervals for 66 h. Cell morphological parameters and the movement of each individual cell was calculated following manufacture's instruction.
(§3) We thus tested the expression of ER-α36 from lung cancer cells.

For the next experiment, the system named is MCF-7 cells. Put plainly: Inhibition of MCF-7 cell division, cells pre-cultured with or without insulin. The experiment is classed as cell-based, human. The conditions noted are these: same drug compared between ER-α36 positive (insulin-free) and insulin medium cells, FIG. 3B. How it is done: A. MCF-7 cells were grown in insulin-free (IL-) medium for three months. Expression of ER-α66, ER-α36, ER-β and GPER were tested using Western blot. B. MCF-7 cells, after cultured in either medium with insulin or without insulin, were treated with tamoxifen or lasofoxifene. […] C. It compares IC50 (μM) of MCF-7 cells responding to tamoxifen or lasofoxifene at the condition of pre-cultured in medium without insulin. *** indicates P<0.001. D. Graph compares IC50 (μM) of MCF-7 cells responding to tamoxifen or lasofoxifene at the condition of pre-cultured in medium with insulin. * indicates P<0.05.
The transcription variant of ER-α36 lacks the AF-1 and AF2 domains. […] It was found located at plasma membrane and cytosol (Boonyaratanakornkit, V. Steroids. 2011 August; 76(9):877-84). […] Phosphorylated IRS interacts with dimer estrogen-ER complexes, which can then translocate into the nucleus and bond with ERE sequence to regulate RNA transcription through the estrogen classical nuclear pathway. […] In contrast, the expression levels of other estrogen receptors were not affected (FIG. 3A).

The test system of experiment [1] is Bcl-2 expression in MCF-7 cells. Put plainly: Bcl-2 expression in MCF-7 cells by western blotting. Type of experiment: cell-based, human. The conditions noted are these: for effect on Bcl-2 expression in medium without estrogen: MCF-7, charcoal stripped FBS, phenol red-free EMEM, vs Blank, FIG. 2B. The protocol:
FIG. 2: Inhibition of Bcl-2 expression in MCF-7 cells by lasofoxifene in comparison with tamoxifen. A: MCF-7 cells were cultured in either EMEM medium containing 10% FBS (Normal) or 5% charcoal striped FBS (CS) for 72 hours. Western blotting assay were performed to analyze Bcl-2 expression (CS: charcoal striped). B: MCF-7 cells were cultured in EMEM medium containing insulin and 5% charcoal striped FBS for 72 hours and then treated by lasofoxifene and tamoxifen for 48 hours. Western blotting assay were performed to analyze Bcl-2 expression. C. MCF-7 were cultured in EMEM medium containing insulin and 10% FBS for 72 hours and then treated by lasofoxifene and tamoxifen for 48 hours. Western blotting assay were performed to analyze Bcl-2 expression. […] E. Statistical analysis of three repeats of part C. N=3×3.
HEK-293, MCF-7, MDA-MB-231, HBE, H1299 and H460 cells were grown following ATCC protocol. The expression level of estrogen-bound receptors was measured using western blotting. Briefly, 80-90% confluence cells were harvested and lysed in RIPA buffer or 1×PBS containing 1% triton-x-100 and protease inhibitor cocktail. Total protein concentration was measured using Bio-rad protein staining dye. Western blotting was performed following standard protocol using nitrocellulose membrane (Millipore) and Bio-rad semi-dry transfer system. The equal amount of total protein from cell lysate was loaded to SDS-PAGE for western blotting. The expression level of ER-α36 and 66, ER-β and GPER1 was measured using antibody.
Estrogen and ER complex binds to estrogen response element (ERE) in chromosome to regulate RNA transcription. Bcl-2 is a key member of anti-apoptosis family proteins. Its overexpression has been linked to many kinds of cancers in human being. […] We first assessed whether lasofoxifene inhibited Bcl-2 expression at higher efficiency compared to tamoxifen. MCF-7 cells were grown in DMEM medium containing insulin and 10% FBS or 5% charcoal striped FBS for 72 h. Cells were then treated by lasofoxifene and tamoxifen for 48 h. We confirmed previous study that the expression of Bcl-2 protein was enhanced by culture medium containing estrogen compared with that containing charcoal-stripped (CS) FBS (FIGS. 2A and B, Blank).

The next experiment concerns H460 cells. Put plainly: Proliferation of H460 lung cancer cells. Type of experiment: cell-based. As to conditions: for proliferation of H460 cells: 2 μM, ER-α36+/EGFR+ cells, FIG. 5-B. The protocol: as §1, §2, §3
Experiment [2] relates to tamoxifen-resistance MCF-7 cells. Briefly: Proliferation of acquired tamoxifen-resistance MCF-7 cells. As to conditions: FIG. 4B. Type of experiment: cell-based, human. The protocol:
A. MCF-7 cells were treated with tamoxifen for ten months. Expression of ER-α66, ER-α46, ER-α36, GPER-1 were tested using Western blot. B. After MCF-7 cells were treated with tamoxifen for ten months, cells were treated with either 2 μM tamoxifen or 2 μM lasofoxifene. Proliferation of MCF-7 were shown under each treatment. ** indicates P<0.01.
MCF-7 cells were grown in EMEM medium containing 10% FBS, antibiotics and 0.1 μM tamoxifen for three months. And then increase tamoxifen concentration to 0.5 μM for another three months, Finally, MCF-7 cells were grown in EMEM medium containing 10% FBS, antibiotics and 1 μM tamoxifen for four months. Tamoxifen-resistance MCF-7 cells were tested by counting cell proliferation rate when cells were grown in high concentration tamoxifen.
To verify our hypothesis that overexpressed ER-α36 variant may result in acquired de novo tamoxifen-resistance, we induced MCF-7 cells using tamoxifen for ten months. We found the expression of ER-α66 was decreased ([…], top panel). In contrast, the expression level of ER-α36 was enhanced (FIG. 4A, middle panel). The expression level of GPER1 was not affected (FIG. 4A bottom panel).

The target of another experiment is T1, GPER1 (Homo sapiens, UniProt Q99527).
T1 construct: expressed in transfected cells; host or cells: HEK293
Briefly: Cytosolic Ca2+ in HEK293 cells overexpressing GPER1-EGFP (Fura-red). Type of experiment: cell-based. As to conditions: HEK293 overexpressing GPER1-EGFP vs EGFP vector, FIG. 11B.

The test system of the next experiment is H1299 cells. Briefly: Proliferation of H1299 lung cancer cells. The experiment is classed as cell-based. How it is done: as §1, §2, §3
The test system of a further experiment is colon cancer cells. Briefly: Colon cancer cell division. Type of experiment: cell-based. The conditions noted are these: ER-α36 positive colon cancer cells, FIG. 8-B. From the text:
(§4) A: ER-α36 was positively expressed in colon cancer cells. […] NCC: normal colon cells. CCC: colon cancer cells. C: ER-α36 was positively expressed in gastric cancer cells. […] NGC: normal gastric cells. GCC: gastric cancer cells. N=3×3; *** means P<0.001.

The test system of experiment [3] is MDA-MB231 breast cancer cells. Put plainly: Proliferation of triple negative MDA-MB231 breast cancer cells. As to conditions: ER-α36 positive MDA-MB231, DMEM 10% FBS, FIG. 9. Type of experiment: cell-based. From the text:
MDA-MB231 cells treated with lasofoxifene in DMEM medium containing 10% FBS. N=3×3; * and ** mean P<0.05 and P<0.01, respectively.

The test system of the next experiment is gastric cancer cells. Put plainly: Gastric cancer cell division. The experiment is classed as cell-based. As to conditions: ER-α36 positive gastric cancer cells, FIG. 8-D.
Text: as §4

In experiment [4] the test system is BT474 breast cancer cells. Put plainly: Proliferation of Herceptin-resistance BT474 breast cancer cells. Type of experiment: cell-based. The conditions noted are these: cells treated with 10 μg/ml Herceptin 3 months; 2 μM lasofoxifene, FIG. 10B. How it is done:
BT474 breast cancer cells were treated with 10 μg/ml Herceptin® in medium for 3 months. A. Cells positively expressed of ER-α36, and decreased the expression level of HER2.

The test system of a further experiment is xenograft H460 tumors. Put plainly: Growth of xenograft H460 tumors in nude mice. The experiment is classed as in vivo. The conditions noted are these: intragastric daily for 2-3 weeks, FIG. 7. The protocol: FIG. 7: Activity to Inhibition of growth of xenograft-ER-α36+/EGFR+ lung tumor (H460) in nude mice by lasofoxifene (LAS) and/or gefitinib. A. Nude mice were grafted with H460 cells. Tumor size were shown after treatment with gefitinib, 3 mg lasofoxifene per kilogram of mouse body mass (3 mg/kg, Las3.0), 1.5 mg lasofoxifene per kilogram of mouse body mass (1.5 mg/kg, Las1.5), 0.75 mg lasofoxifene per kilogram of mouse body mass (0.75 mg/kg, Las0.75), or a combination of gefitinib and 1.5 mg lasofoxifene per kilogram of mouse body mass (Gef+Las1.5). B. Statistical result of tumor mass from two repeat experiments (n≥6).* and ** mean P<0.05 and P<0.01, respectively.
H460 cells were grown in RPMI-1640 medium containing 10% FBS. When cells are 70-80% confluent and ready for experiments, replace medium with fresh medium for 3 hours. Remove medium and wash cells with medium without FBS for three times. Cells were then trypsinized and suspended in medium, equal volume of cells and support gel was mixed up to 200 μl for each injection. Cells were injected subcutaneously (s.c.) into 4-6 week old nude mice. 1.0˜2.0×10^6 H460 cells were administrated into each nude mouse. […] Tumor size were calculated by the formula: volume=(width)^2×length/2.
To verify in vitro results, we constructed xenograft H460 tumors in nude mice. The tumor size was measured using digital vernier caliper. […]

A further experiment deals with ER-β (Homo sapiens, UniProt Q92731). As to conditions: higher affinity than raloxifene and tamoxifen; Gennari 2006; cited from earlier work.
The target in a further experiment is T2, ER-α (Homo sapiens, UniProt P03372).
T2 sequence (P03372 311-547 limits assumed): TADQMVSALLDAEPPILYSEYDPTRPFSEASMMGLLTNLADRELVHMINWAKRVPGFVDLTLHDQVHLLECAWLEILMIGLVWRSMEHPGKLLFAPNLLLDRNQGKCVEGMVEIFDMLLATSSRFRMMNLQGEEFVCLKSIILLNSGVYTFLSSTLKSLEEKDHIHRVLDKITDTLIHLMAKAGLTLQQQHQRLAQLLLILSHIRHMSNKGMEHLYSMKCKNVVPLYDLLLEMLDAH
The conditions noted are these: cited from earlier work.

Bounds are passed on as bounds.

T1 sequence (Q99527 whole entry, species assumed): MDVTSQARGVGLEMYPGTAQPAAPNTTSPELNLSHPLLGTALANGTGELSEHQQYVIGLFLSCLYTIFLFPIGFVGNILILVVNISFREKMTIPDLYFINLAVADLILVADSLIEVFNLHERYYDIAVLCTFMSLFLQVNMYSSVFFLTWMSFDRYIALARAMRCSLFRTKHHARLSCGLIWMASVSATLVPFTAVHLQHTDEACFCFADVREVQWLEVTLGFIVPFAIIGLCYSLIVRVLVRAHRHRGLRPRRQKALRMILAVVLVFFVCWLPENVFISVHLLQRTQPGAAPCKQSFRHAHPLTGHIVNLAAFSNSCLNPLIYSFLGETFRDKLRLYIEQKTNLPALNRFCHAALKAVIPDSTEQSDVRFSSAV
Sequence of ER-β (Q92731 whole entry, species assumed): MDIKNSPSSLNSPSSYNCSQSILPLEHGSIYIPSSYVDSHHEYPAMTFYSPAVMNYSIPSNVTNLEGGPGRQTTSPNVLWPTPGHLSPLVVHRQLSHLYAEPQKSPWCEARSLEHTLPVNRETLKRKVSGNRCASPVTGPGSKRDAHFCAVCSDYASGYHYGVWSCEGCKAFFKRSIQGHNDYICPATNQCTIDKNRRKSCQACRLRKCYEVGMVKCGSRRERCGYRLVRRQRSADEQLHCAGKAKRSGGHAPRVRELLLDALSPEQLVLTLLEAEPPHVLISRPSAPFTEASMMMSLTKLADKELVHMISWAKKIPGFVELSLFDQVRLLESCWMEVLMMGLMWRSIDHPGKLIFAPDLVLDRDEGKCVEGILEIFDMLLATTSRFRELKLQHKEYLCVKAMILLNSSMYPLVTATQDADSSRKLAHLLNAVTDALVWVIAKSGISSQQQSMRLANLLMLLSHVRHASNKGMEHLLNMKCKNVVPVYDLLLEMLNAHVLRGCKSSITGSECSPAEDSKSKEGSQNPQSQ
Experimental for GPER1: A. HEK293 cells were transfected with either GPER1-EGFP or EGFP alone.
The assays were performed as following. Briefly, cells were grown on a glass-bottomed perfusion chamber mounted on the stage of an inverted confocal microscope (Andor), and then incubated with 2 μM Fura-red AM (Molecular Probes, Eugene, Oreg., USA) for 60 min at 37° C. in normal culture media. Cells were then perfused continuously with Hanks' balanced salt solution (Sigma) containing 1.8 mM CaCl2 and 0.8 mM MgCl2, pH 7.4. […] Cells were perfused with complete culture media without phenol red, and Fura-red was excited at 572 nm. The fluorescence emitted at 657 nm was then collected and recorded using a CCD-based imaging system running software (Andor).

Consider `CC/C(=C(\c1ccccc1)c1ccc(OCCN(C)C)cc1)c1ccccc1` [tamoxifen], for which the “proliferation of HBE cells” value with HBE cells is recorded as “Neither tamoxifen nor lasofoxifene affected the proliferation of HBE cells”. For the same compound, the “inhibition of MCF-7 cell division, without vs with insulin (IC50 comparison)” value in the experiment with MCF-7 cells is recorded as “exerted the opposite effect”. In addition, the “effect on Bcl-2 expression in medium without estrogen” value in experiment [1] (treated 48 h) was “neither tamoxifen nor lasofoxifene affected Bcl-2 expression”. In addition, the “proliferation of H460 cells” value in the experiment on H460 cells is reported as “exhibited opposite effect”. Further, the “inhibiting activity on proliferation” value in experiment [2] (2 μM, MCF-7 induced by tamoxifen for over 10 months) is “did not inhibit MCF-7 cell proliferation”.
In the case of `O=C(c1ccc(OCCN2CCCCC2)cc1)c1c(-c2ccc(O)cc2)sc2cc(O)ccc12` [raloxifene], the “cytosolic [Ca2+]i” value on GPER1 is “significantly enhanced cytosolic [Ca^2+]i”.
As to `COc1cc2ncnc(Nc3ccc(F)c(Cl)c3)c2cc1OCCCN1CCOCC1` [gefitinib], the “proliferation of H1299 cells, gefitinib alone or combined” value in the experiment on H1299 cells (concentration not given, FIG. 5D) is on record as “did not inhibit H1299 cell proliferation”. In addition, the “proliferation of H460 cells, gefitinib alone or combined” value with H460 cells (concentration not given, FIG. 5C) is on record as “inhibited the proliferation of H460”.
On to `Oc1ccc2c(c1)CC[C@H](c1ccccc1)[C@@H]2c1ccc(OCCN2CCCC2)cc1` [lasofoxifene, (−)-cis-(5R,6S)-6-phenyl-5-[4-(2-pyrrolidin-1-ylethoxy)phenyl]-5,6,7,8-tetrahydronaphthalen-2-ol], for which the “colon cancer cell division” value with colon cancer cells is “inhibited colon cancer cell division”. In addition, in the experiment with HBE cells, the “proliferation of HBE cells” value is recorded as “Neither tamoxifen nor lasofoxifene affected the proliferation of HBE cells”. Further, the “proliferation of triple negative breast cancer cells” value in experiment [3] was “the same lasofoxifene activity was also found”. In addition, the “inhibition of MCF-7 cell division, without vs with insulin (IC50 comparison)” value in the experiment with MCF-7 cells was “more effectively inhibited divisions of MCF-7 cell which positively expressed ER-α36”. Besides, the “proliferation of H1299 cells” value with H1299 cells (2 μM, ER-α36 high, weak EGFR, FIG. 5-D) is “inhibited”. In addition, in the experiment with gastric cancer cells, the “gastric cancer cell division” value was “inhibited gastric cancer cell division”. In addition, in [4], the “proliferation of Herceptin-resistance BT474 cells” value is reported as “Sensitive response”. Besides, the “effect on Bcl-2 expression in medium without estrogen” value in experiment [1] (treated 48 h) is on record as “neither tamoxifen nor lasofoxifene affected Bcl-2 expression”. Also, in [1] (MCF-7, medium with insulin and 10% FBS 72 h, treated 48 h, 2.5 μM LAS vs 2.5 μM TAM, FIG. 2C), the “inhibition of Bcl-2 expression” value was “weaker activity to inhibit Bcl-2 expression compared with tamoxifen”. In experiment [1] (MCF-7, medium with insulin and 10% FBS, 48 h, FIG. 2D), the “dose dependence of Bcl-2 expression inhibition” value is “inhibited Bcl-2 expression in a dosage dependent manner”. The “growth of xenograft H460 tumors” value with xenograft H460 tumors is on record as “inhibited the growth of xenograft H460 tumors”. Moreover, the “affinity for ER-β relative to those reported for raloxifene and tamoxifen” value at ER-β is “at least 10 fold”. The “proliferation of H460 cells” value in the experiment with H460 cells was “inhibited”. For the same compound, the “affinity for ER-α relative to those reported for raloxifene and tamoxifen” value on ER-α (higher affinity than raloxifene and tamoxifen, Gennari 2006) was “at least 10 fold”. Moreover, the “binding affinity to ER-αLBD” value on ER-α (reported value) was 1.5 nM. Moreover, the inhibition at 2 µM in [2] (Homo sapiens, MCF7, MCF-7 induced by tamoxifen for over 10 months, read-out: inhibiting activity on proliferation) was above 50%. For the same compound, the “cytosolic [Ca2+]i” value on GPER1 was “significantly enhanced cytosolic [Ca^2+]i”.
